Experimental data from patent US5364867A, “4-phenylpiperdine agents for treating cns disorders” (Sterling Winthrop Inc., priority 1992, dated 1994).
Structures can show the parent of a compound that is named as a salt.

Target: sigma receptors
Experiment: sigma receptor binding, [3H]di(2-tolyl)-guanidine (DTG) assay, guinea pig brain membranes
Conditions: [3H]DTG approximately 4 nM; male Hartley guinea pig brain membranes; 25° C. for 90 min; nonspecific binding 10 μM haloperidol
Method: Brain tissue was prepared from male Hartley guinea pigs (Hazelton Labs, Denver, Pa.) which were anesthetized with CO2 and sacrificed by decapitation. All animal care and use procedures were in accord with the "Guide for the Care and Use of Laboratory Animals" (NIH Publ. No. 86-23, 1985). Homogenization was performed in 10 volumes (wt/vol) of 0.32M sucrose with a Brinkmann Polytron at setting 5, 30 sec. The homogenate was centrifuged at 900×g for 10 min at 4° C., and the supernatant was collected and centrifuged at 22,000×g for 20 min at 4° C. The pellet was resuspended in 10 volumes of Tris-HCl buffer (50 mM, pH 7.4), incubated at 37° C. for 30 min and centrifuged at 22,000×g for 20 min at 4° C. Following this, the pellet was resuspended in Tris buffer and frozen in 5-10 mL aliquots corresponding to a tissue concentration of 100 mg/mL at -70° C. Binding characteristics of the membranes were stable for at least one month when stored at -70° C.
On the day of the assay, membrane aliquots were thawed, resuspended in fresh Tris buffer and stored on ice until use. Each assay tube contained 100 μL of [^3 H](+)pentazocine at a final concentration of approximately 0.5 nM, [^3 H]di(2-tolyl)-guanidine (DTG) at a final concentration of approximately 4 nM, 100 μL of various concentrations of the compounds of interest, 500 μL of the tissue suspension and 300 μL of buffer to a final assay volume of 1 mL and a final tissue concentration of approximately 8 mg/tube, corresponding to approximately 0.15 mg protein/tube. Nonspecific binding was defined by addition of a final concentration of 1 μM haloperidol to blank tubes for the [^3 H](+)pentazocine assay or by addition at a final concentration of 10 μM haloperidol to blank tubes for [^3 H] DTG assay. All tubes were incubated at 37° C. for 150 min ([^3 H](+)pentazocine) or at 25° C. for 90 min ([^3 H]DTG) before termination of the reaction by filtration over Whatman GF/B glass fiber filters that were presoaked in a solution of 0.5% polyethyleneimine for at lease 1 hr prior to use. Filters were washed with three 4 mL volumes of cold Tris-HCl buffer.
Following addition of scintillation cocktail, samples were allowed to equilibrate for at least 4 hr. The amount of bound radioactivity was determined by liquid scintillation spectrometry using a Beckman LS 5000 TA liquid scintillation counter with an efficiency for tritium of approximately 60%. The results are reported as a percent (%) inhibit ion of binding at 10 μM.
Data obtained on the compounds in the di(2-tolyl)guanidine (DTG) and d-pentazocine (+Pent) assays are expressed as a Ki value in nM. The number of determinations follow this value in parentheses.

SMILES	Ki [nM]
CCC(=O)C1(c2ccccc2)CCN(CCCc2ccccc2)CC1 [Example 5, 4-Phenyl-1-(3-phenylpropyl)-4-propionylpiperidine]	9.1
O=C(O)C1(c2ccccc2)CCN(CCCc2ccccc2)CC1 [Example 2a, 4-phenyl-1-(3-phenylpropyl)-4-piperidinecarboxylic acid]	16.4
O=C(N1CCCC1)C1(c2ccccc2)CCN(CCCc2ccccc2)CC1 [Example 2b, 4-Phenyl-1-(3-phenylpropyl)-4-(1-pyrrolidinylcarbonyl)piperidine]	116
COc1cccc(C2CCN(CCCc3ccccc3)CC2)c1 [Example 3a, 4-(3-methoxyphenyl)-1-(3-phenylpropyl)piperidine hydrochloride]	2.21
O=C(c1ccccc1)C1(c2ccccc2)CCN(CCCc2ccccc2)CC1 [Example 4, 4-benzoyl-4-phenyl-1-(3-phenylpropyl)piperidine]	22.1
O=C(CCc1ccccc1)N1CCC(O)(c2ccccc2)CC1 [Example 1, 4-Phenyl-4-hyroxy-1-(3-phenylpropionyl) piperidine]	34400
CCC(=O)OC1(c2ccccc2)CCN(CCC(=NO)c2ccccc2)CC1 [Example 6, 4-Phenyl-1-(3-oximino-3-phenylpropyl)-4-propionoxypiperidine]	589
CCOC(=O)C1(c2ccccc2)CCN(CCCc2ccccc2)CC1 [Example 7, Ethyl 4-Phenyl-1-(3-phenylpropyl)-4-piperidinecarboxylate]	88.9
Oc1cccc(C2CCN(CCCc3ccccc3)CC2)c1 [Example 3b, 4-(3-hydroxyphenyl)-1-(3-phenylpropyl)piperidine hydrochloride]	0.65
